The LD50 is the dose expected to kill half of the subjects tested.

The values below come from ChEMBL document CHEMBL6120946, “From Hit to Lead: Discovery of First-In-Class Furanone Glycoside D228 Derived from Chimonanthus salicifolius for the Treatment of Inflammatory Bowel Disease” (J Med Chem, 2024).

Each structure is given as a SMILES string. Activity calls are given as the source filed them. The rule behind the calls is not given here.

Series [1] relates to Mus musculus. Briefly: Antiinflammatory activity in DSS-induced male C57BL/6 mouse model of inflammatory bowel disease assessed as recovery from body weight loss at 40 mg/kg/day, ip measured after 14 days relative to control. Format: functional. Particulars: time 14 day.
Series [2] has as its system Mus musculus. Briefly: Antiinflammatory activity in DSS-induced male C57BL/6 mouse model of inflammatory bowel disease assessed as increase in colon length at 20 mg/kg/day, ip measured after 14 days relative to control. Format: functional. Particulars: time 14 day.
Series [3] has as its system Mus musculus. Kind of series: Antiinflammatory activity in DSS-induced male C57BL/6 mouse model of inflammatory bowel disease assessed as reduction of bloody stool at 15 to 60 mg/kg/day, po via gavage measured upto 14 days. Type of series: functional, organism-based. Particulars: dose 15-60 mg/kg/day, time <= 14.0 day.
The test system of series [4] is Mus musculus. Kind of series: Antiinflammatory activity in DSS-induced male C57BL/6 mouse model of inflammatory bowel disease assessed as decrease in p38 phosphorylation level at 50 to 200 microM/Kg by Western blot analysis. Format: functional, organism-based. The note with it: dose 50-200 µM/Kg. Background: Immunoblotting shows a protein as a band on a membrane.

The test system of series [5] is Mus musculus. Briefly: Antiinflammatory activity in DSS-induced male C57BL/6 mouse model assessed as effect on JNK phosphorylation level at 50 to 200 microM/Kg by Western blot analysis. Format: functional, organism-based. The note with it: dose 50-200 µM/Kg.
Series [6] has as its system Mus musculus. Briefly: Antiinflammatory activity in DSS-induced male C57BL/6 mouse model assessed as inhibition of TNF-alpha level in colon at 50 to 200 microM/Kg. Format: functional, organism-based. Particulars: dose 50-200 µM/Kg.
Series [7] concerns Mus musculus. Briefly: Antiinflammatory activity in DSS-induced male C57BL/6 mouse model assessed as inhibition of IL-6 level in colon at 50 to 200 microM/Kg. Type of series: functional, organism-based. Particulars: dose 50-200 µM/Kg.
The test system of series [8] is Mus musculus. Kind of series: Antiinflammatory activity in DSS-induced male C57BL/6 mouse model of inflammatory bowel disease assessed as amelioration of infiltration of inflammatory cells at 50 to 200 microM/Kg by H and E staining based analysis. Type of series: functional, organism-based. Particulars: dose 50-200 µM/Kg.
For series [9], the species on record is Mus musculus. Briefly: Antiinflammatory activity in DSS-induced male C57BL/6 mouse model of inflammatory bowel disease assessed as reduction in TLR4 level. Type of series: functional, organism-based.
Series [10] is filed under the species Mus musculus. Kind of series: Antiinflammatory activity in DSS-induced male C57BL/6 mouse model of inflammatory bowel disease assessed as reduction in p38 level. Format: functional, organism-based.
The species named for series [11] is Mus musculus. Kind of series: Antiinflammatory activity in DSS-induced male C57BL/6 mouse model of inflammatory bowel disease assessed as reduction in IRF5 level. Type of series: functional, organism-based.
Series [12] concerns Mus musculus. Briefly: Antiinflammatory activity in DSS-induced male C57BL/6 mouse model of inflammatory bowel disease assessed as increase in colon length at 22.5 mg/kg/day, po via gavage measured upto 14 days relative to control. Format: functional. The note with it: time <= 14 day.
In series [13] the test system is Mus musculus. Kind of series: Antiinflammatory activity in male C57BL/6 mouse model of inflammatory bowel disease assessed as recovery of DSS-induced body weight loss at 40 mg/kg/day, po via gavage measured after 14 days relative to control. Type of series: functional. Particulars: time 14 day.
For series [14], the system named is Mus musculus. Briefly: Antiinflammatory activity in DSS-induced male C57BL/6 mouse model of inflammatory bowel disease assessed as restoration of colon length at 40 mg/kg/day, po via gavage measured after 14 days relative to control. Format: functional. The note with it: time 14 day.
The test system of series [15] is Mus musculus. Briefly: Antiinflammatory activity in DSS-induced male C57BL/6 mouse model assessed as inhibition of IL-22 level in colon at 50 to 100 microM/Kg. Format: functional, organism-based. The note with it: dose 50-100 µM/Kg.
Series [16] has as its system Mus musculus. Briefly: Antiinflammatory activity in DSS-induced male C57BL/6 mouse model of inflammatory bowel disease assessed as amelioration of structural loss of colon at 50 to 100 microM/Kg by H and E staining based analysis. Format: functional, organism-based. The note with it: dose 50-100 µM/Kg.
The test system of series [17] is Mus musculus. Briefly: Antiinflammatory activity in DSS-induced male C57BL/6 mouse model of inflammatory bowel disease assessed as inhibition of MPO expression at 50 to 100 microM/Kg, po by immunohistochemical analysis. Format: functional, organism-based. The note with it: dose 50-100 µM/Kg.
Series [18] is described as follows: Acute toxicity in male Kunming mouse assessed as effect on heart 5 g/Kg, po measured after 5 weeks. Particulars: in vivo, 5000 mg/kg, 840 h. Format: organism-based.
Series [19] in a line: Acute toxicity in male Kunming mouse assessed as effect on liver 5 g/Kg, po measured after 5 weeks. The note with it: in vivo, 5000 mg/kg, 840 h. Type of series: organism-based.
Series [20] can be described thus: Acute toxicity in male Kunming mouse assessed as effect on lung 5 g/Kg, po measured after 5 weeks. Type of series: organism-based. The note with it: in vivo, 5000 mg/kg, 840 h.
Series [21] can be described thus: Acute toxicity in male Kunming mouse assessed as effect on kidney 5 g/Kg, po measured after 5 weeks. Format: organism-based. Particulars: in vivo, 5000 mg/kg, 840 h.
Series [22] is described as follows: Acute toxicity in female Kunming mouse assessed as effect on liver 5 g/Kg, po measured after 5 weeks. Format: organism-based. The note with it: in vivo, 5000 mg/kg, 840 h.
Series [23] can be described thus: Toxicity in male Kunming mouse assessed as effect on kidney to body weight ratio at 100 to 500 mg/kg/day, po measured after 5 weeks. Format: organism-based. The note with it: in vivo, 840 h, dose 100-500 mg/kg/day.
Series [24] in a line: Toxicity in male Kunming mouse assessed as effect on lung at 100 to 500 mg/kg/day, po measured after 5 weeks by H and E staining based analysis. Type of series: organism-based. Particulars: in vivo, 840 h, dose 100-500 mg/kg/day.
Series [25] in a line: Toxicity in male Kunming mouse assessed as effect on ALT level in serum at 100 to 500 mg/kg/day, po measured after 5 weeks. Format: organism-based. The note with it: in vivo, 840 h, dose 100-500 mg/kg/day.
The nature of series [26]: Toxicity in male Kunming mouse assessed as effect on ALP level in serum at 100 to 500 mg/kg/day, po measured after 5 weeks. Format: organism-based. The note with it: in vivo, 840 h, dose 100-500 mg/kg/day.
A short description of series [27]: Toxicity in male Kunming mouse assessed as effect on BUN level in serum at 100 to 500 mg/kg/day, po measured after 5 weeks. Type of series: organism-based. The note with it: in vivo, 840 h, dose 100-500 mg/kg/day.
Series [28] is described as follows: Toxicity in male Kunming mouse assessed as effect on CREA level in serum at 100 to 500 mg/kg/day, po measured after 5 weeks. The note with it: in vivo, 840 h, dose 100-500 mg/kg/day. Type of series: organism-based.
A short description of series [29]: Toxicity in male Kunming mouse assessed as effect on GLU level in serum at 100 to 500 mg/kg/day, po measured after 5 weeks. Format: organism-based. Particulars: in vivo, 840 h, dose 100-500 mg/kg/day.
Series [30] is described as follows: Toxicity in female Kunming mouse assessed as change in food intake at 100 to 500 mg/kg/day, po measured after 5 weeks. Format: organism-based. The note with it: in vivo, 840 h, dose 100-500 mg/kg/day.
The nature of series [31]: Toxicity in female Kunming mouse assessed as effect on lung to body weight ratio at 100 to 500 mg/kg/day, po measured after 5 weeks. Format: organism-based. Particulars: in vivo, 840 h, dose 100-500 mg/kg/day.
Series [32] can be described thus: Toxicity in female Kunming mouse assessed as effect on liver to body weight ratio at 100 to 500 mg/kg/day, po measured after 5 weeks. Format: organism-based. Particulars: in vivo, 840 h, dose 100-500 mg/kg/day.
The nature of series [33]: Toxicity in female Kunming mouse assessed as effect on kidney to body weight ratio at 100 to 500 mg/kg/day, po measured after 5 weeks. The note with it: in vivo, 840 h, dose 100-500 mg/kg/day. Format: organism-based.
Series [34] can be described thus: Toxicity in female Kunming mouse assessed as effect on liver at 100 to 500 mg/kg/day, po measured after 5 weeks by H and E staining based analysis. Particulars: in vivo, 840 h, dose 100-500 mg/kg/day. Type of series: organism-based.
The nature of series [35]: Toxicity in female Kunming mouse assessed as effect on kidney at 100 to 500 mg/kg/day, po measured after 5 weeks by H and E staining based analysis. Format: organism-based. Particulars: in vivo, 840 h, dose 100-500 mg/kg/day.
A short description of series [36]: Toxicity in female Kunming mouse assessed as effect on AST level in serum at 100 to 500 mg/kg/day, po measured after 5 weeks. Type of series: organism-based. The note with it: in vivo, 840 h, dose 100-500 mg/kg/day.
A short description of series [37]: Toxicity in female Kunming mouse assessed as effect on CREA level in serum at 100 to 500 mg/kg/day, po measured after 5 weeks. Format: organism-based. The note with it: in vivo, 840 h, dose 100-500 mg/kg/day.
Series [38] is described as follows: Toxicity in male Kunming mouse assessed as lethal dose administered as po measured after 5 weeks. Type of series: organism-based. The note with it: in vivo.
Series [39] can be described thus: Drug metabolism in mouse liver microsomes assessed as phoenicein formation measured after 5 mins in presence of NADPH by LC/MS/MS analysis. Type of series: ADME, Microsome. (Liver microsomes are a subcellular fraction often used to study metabolism.)

As to `CC(C)=C1OC(C)=C(O[C@@H]2O[C@H](CO)[C@@H](O)[C@H](O)[C@H]2O)C1=O`, the Activity in series [1] amounted to 56.2%; in [2], 47.4%. Also, the result in series [3], in series [4], in [6], in [7], in series [8] and in series [9] was Active. For the same compound, the outcome in series [10] and in series [11] was Active. Further, the result in [5] was inactive.

For the compound `CC(=O)OC[C@H]1O[C@@H](OC2=C(C)OC(=C(C)C)C2=O)[C@H](OC(C)=O)[C@@H](OC(C)=O)[C@@H]1OC(C)=O`, the Activity in [12] is 45.3%; in series [13], 49.1%; in series [14] it was 28.6%; in series [18] it was “Non-toxic”; in series [19] it was “Non-toxic”; in series [20], “Non-toxic”. Besides, the Activity entry in series [21], in [22], in series [23], in [24], in [25] and in series [26] was “Non-toxic” throughout. Besides, the Activity entry in series [27], in series [28], in [29], in [30], in [31] and in series [32] was “Non-toxic” throughout. For the same compound, the Activity result in series [33], in series [34], in series [35], in series [36] and in series [37] was “Non-toxic” each time. Also, the outcome in series [15], in [16] and in series [17] was Active. The LD50 at 840 h in [38] is more than 500 mg/kg. In addition, the Drug metabolism result in [39] is given as “metabolite_detected”.
